Drawing on patent US4699905A, “Perhydrothiazepine derivatives, their preparation and their therapeutic use” (Sankyo Company, Limited, priority 1984, dated 1987), this text covers IC50 for 11 compounds.

For the experiment, the target named is T1, ACE extracted from rabbit lungs (Oryctolagus cuniculus, UniProt P12822).
T1 construct: solutions of ACE extracted from rabbit lungs; from tissue; host or cells: rabbit lung
T1 sequence (P12822 34-1310): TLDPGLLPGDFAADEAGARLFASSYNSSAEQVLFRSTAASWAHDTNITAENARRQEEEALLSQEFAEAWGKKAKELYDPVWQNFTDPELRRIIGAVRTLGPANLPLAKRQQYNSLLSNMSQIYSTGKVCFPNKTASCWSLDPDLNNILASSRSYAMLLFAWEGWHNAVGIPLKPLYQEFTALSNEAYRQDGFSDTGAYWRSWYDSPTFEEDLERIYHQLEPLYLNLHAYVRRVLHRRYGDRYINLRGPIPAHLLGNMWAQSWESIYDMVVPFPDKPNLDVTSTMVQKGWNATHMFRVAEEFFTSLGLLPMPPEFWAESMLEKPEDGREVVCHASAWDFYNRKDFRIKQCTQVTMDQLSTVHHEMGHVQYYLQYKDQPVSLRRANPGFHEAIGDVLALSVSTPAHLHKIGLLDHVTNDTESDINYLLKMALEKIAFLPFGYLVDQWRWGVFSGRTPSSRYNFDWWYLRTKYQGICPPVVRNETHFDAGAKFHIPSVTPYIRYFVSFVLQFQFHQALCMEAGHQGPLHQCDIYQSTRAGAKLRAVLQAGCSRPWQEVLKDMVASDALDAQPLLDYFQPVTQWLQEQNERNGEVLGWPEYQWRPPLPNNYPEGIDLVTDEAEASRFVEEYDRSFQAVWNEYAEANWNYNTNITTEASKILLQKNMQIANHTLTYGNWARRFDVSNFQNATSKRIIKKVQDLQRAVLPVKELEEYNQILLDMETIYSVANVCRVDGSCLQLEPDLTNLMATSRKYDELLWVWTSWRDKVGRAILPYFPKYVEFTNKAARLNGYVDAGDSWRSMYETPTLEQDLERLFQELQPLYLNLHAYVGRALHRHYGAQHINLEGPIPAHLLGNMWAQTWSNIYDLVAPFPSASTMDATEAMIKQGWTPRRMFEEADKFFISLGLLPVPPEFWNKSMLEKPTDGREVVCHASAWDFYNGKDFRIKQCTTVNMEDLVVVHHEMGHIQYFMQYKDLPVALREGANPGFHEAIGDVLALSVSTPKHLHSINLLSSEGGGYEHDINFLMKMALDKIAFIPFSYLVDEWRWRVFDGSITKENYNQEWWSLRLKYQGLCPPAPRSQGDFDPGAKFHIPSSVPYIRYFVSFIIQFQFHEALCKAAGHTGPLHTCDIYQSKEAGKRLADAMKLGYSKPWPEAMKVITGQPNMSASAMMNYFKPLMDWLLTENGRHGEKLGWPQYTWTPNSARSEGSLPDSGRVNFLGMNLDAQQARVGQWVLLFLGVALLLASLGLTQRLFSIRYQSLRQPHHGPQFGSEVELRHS
In words: inhibition of ACE activity in vitro (hippurylhistidylleucine substrate; procedure of Cushman et al.). The format is biochemical. The following applies: borate buffer with sodium chloride, pH 8.3, 37° C., 30 minutes, hippuric acid by UV 228 nm. On the procedure:
As noted above, the compounds of the present invention have the ability to inhibit the activity of ACE, the enzyme which converts angiotensin I to angiotensin II and also inactivates bradykinin. […] W. Cushman et al. [Biochemical Pharmachology, 20, 1637 (1971)]. […] The enzymatic reaction was allowed to proceed at 37° C. for 30 minutes, after which time the reaction was terminated by adding 1N aqueous hydrochloric acid. […] The residual hippuric acid was dissolved in water. The amount of hippuric acid in the resulting aqueous solution was determined by the absorbency to ultraviolet radiation at 228 nm. These values were then plotted to form a curve indicating the relationship between the amount of hippuric acid formed and the concentration of the test compound. The IC50 value can be obtained by reading on this curve the concentration of the test compound which reduces the amount of hippuric acid formed to one half of that formed when no test compound is present.

Molecules are shown by their SMILES. pIC50: −log10 of the molar value.

What is called pIC50 is the IC50 on a negative log10 scale, so that one unit is a factor of ten.

`O=C(O)CN1CC(c2ccsc2)SCC(NC(CCc2ccccc2)C(=O)O)C1=O` (single isomer, unassigned) [D] had a pIC50 of 8.60.

The compound `O=C(O)CN1CC(c2ccc3ccccc3c2)SCC(NC(CCc2ccccc2)C(=O)O)C1=O` (single isomer, unassigned) [I] showed a negative logarithm of the IC50 (pIC50) of 8.70.

With `O=C(O)CN1CC(c2cccs2)SCC(NC(CCc2ccccc2)C(=O)O)C1=O` (single isomer, unassigned) [E], the pIC50 was 8.62.

Consider `CC(C)[C@@H]1CSC[C@H](N[C@@H](CCc2ccccc2)C(=O)O)C(=O)N1CC(=O)O` [B], for which the pIC50 is 8.80.

In the case of `O=C(O)CN1CC(c2ccco2)SCC(NC(CCc2ccccc2)C(=O)O)C1=O` (single isomer, unassigned) [F], the pIC50 was 8.52.

Turning to `O=C(O)CN1C(=O)[C@@H](N[C@@H](CCc2ccccc2)C(=O)O)CSC[C@@H]1Cc1ccccc1` [K], the pIC50 is 8.89.

As to `C[C@@H]1CSC[C@H](N[C@@H](CCc2ccccc2)C(=O)O)C(=O)N1CC(=O)O` [J], the pIC50 was 8.52.

Consider `O=C(O)CN1C(=O)[C@@H](N[C@@H](CCc2ccccc2)C(=O)O)CSC[C@H]1c1cccs1` [G], for which the pIC50 is 8.85.

In turn, `O=C(O)CN1CC(c2cccc3ccccc23)SCC(NC(CCc2ccccc2)C(=O)O)C1=O` (single isomer, unassigned) [H] showed a negative logarithm of the IC50 (pIC50) of 8.80.

Consider `O=C(O)CN1C(=O)[C@@H](N[C@@H](CCc2ccccc2)C(=O)O)CSC[C@H]1c1ccccc1` [A], for which the pIC50 was 8.96.

In turn, `O=C(O)CN1CC(c2ccccc2)SCC(NC(CCc2ccccc2)C(=O)O)C1=O` (single isomer, unassigned) [C] gave a pIC50 of 8.62.
